The subject of data set [1] is Staphylococcus epidermidis. Description: Inhibition of biofilm formation in Staphylococcus epidermidis ATCC 35984 at 64 ug/ml by crystal violet staining based assay relative to control. In kind it is functional.
Data set [2] concerns Staphylococcus aureus. Description: Antibacterial activity against Staphylococcus aureus ATCC 29213 by broth microdilution method. In kind it is functional. On the technique in general: Dilution methods test growth across graded concentrations, often in twofold steps.
Another data set deals with Pseudomonas aeruginosa. Briefly: Antibacterial activity against Pseudomonas aeruginosa ATCC 27853 by broth microdilution method. In kind it is functional.
Data set [3] concerns Staphylococcus epidermidis. Briefly: Induction of preformed biofilm disruption in Staphylococcus epidermidis ATCC 35984 at 64 ug/ml by crystal violet staining based assay relative to control. In kind it is functional. The conditions noted are these: dose 64.0 µg/ml.
The subject of data set [4] is Staphylococcus aureus. Briefly: Bactericidal activity against Staphylococcus aureus ATCC 29213 at 32 ug/ml measured at 0 hrs by time kill assay (reference value: 5.65 to 9.57). The conditions noted are these: dose 32 µg/ml. In kind it is functional.
Data set [5] is described as follows: Cytotoxicity against human HaCaT cells assessed as reduction in cell viability at 32 ug/ml incubated for 24 hrs by MTT assay. In kind it is cell-based. The conditions noted are these: at 32 µg/mL, read-out: INH. (In general: Tetrazolium dyes change colour on reduction, which living cells bring about.)
Data set [6] relates to Staphylococcus aureus. Briefly: Bactericidal activity against Staphylococcus aureus ATCC 29213 at 32 ug/ml measured at 24 hrs by time kill assay (reference value: 5.65 to 9.57). In kind it is functional. The conditions noted are these: dose 32 µg/ml.
Data set [7] relates to Staphylococcus aureus. Description: Bactericidal activity against Staphylococcus aureus ATCC 29213 at 32 ug/ml measured at 6 hrs by time kill assay (reference value: 5.65 to 9.57). The conditions noted are these: dose 32 µg/ml. In kind it is functional.
Data set [8] can be described thus: Cytotoxicity against human HaCaT cells assessed as reduction in cell viability at 16 ug/ml incubated for 24 hrs by MTT assay. In kind it is cell-based. The conditions noted are these: at 16 µg/mL, read-out: INH.
In data set [9] the test system is Staphylococcus aureus. Description: Bactericidal activity against Staphylococcus aureus ATCC 29213 at 32 ug/ml measured at 3 hrs by time kill assay (reference value: 5.65 to 9.57). In kind it is functional. As to conditions: dose 32 µg/ml.
Data set [10] relates to Staphylococcus epidermidis. Briefly: Antibacterial activity against Staphylococcus epidermidis ATCC 35984 by broth microdilution method. In kind it is functional.
Another data set relates to Candida albicans. Description: […] activity against Candida albicans ATCC 90028 by broth microdilution method. In kind it is functional.
The test system of data set [11] is Staphylococcus aureus. Briefly: Bactericidal activity against Staphylococcus aureus ATCC 29213 at 32 ug/ml measured at 1 hr by time kill assay (reference value: 5.65 to 9.57). In kind it is functional. The conditions noted are these: dose 32 µg/ml.
Data set [12] concerns Staphylococcus epidermidis. Briefly: Inhibition of biofilm formation in Staphylococcus epidermidis ATCC 35984 at 8 to 32 ug/ml by crystal violet staining based assay relative to control. In kind it is functional, organism-based. As to conditions: dose microg/ml 8-32.
The subject of data set [13] is Staphylococcus aureus. Description: Bactericidal activity against Staphylococcus aureus ATCC 29213 at 16 ug/ml measured at 24 hrs by time kill assay (reference value: 5.65 to 9.57). In kind it is functional. The conditions noted are these: dose 16 µg/ml.
The test system of data set [14] is Staphylococcus aureus. Description: Bactericidal activity against Staphylococcus aureus ATCC 29213 at 16 ug/ml measured at 1 hr by time kill assay (reference value: 5.65 to 9.57). In kind it is functional. The conditions noted are these: dose 16 µg/ml.
For data set [15], the system named is Staphylococcus aureus. Description: Bactericidal activity against Staphylococcus aureus ATCC 29213 at 16 ug/ml measured at 6 hrs by time kill assay (reference value: 5.65 to 9.57). In kind it is functional. The conditions noted are these: dose 16 µg/ml.
The test system of data set [16] is Staphylococcus aureus. Description: Bactericidal activity against Staphylococcus aureus ATCC 29213 at 16 ug/ml measured at 3 hrs by time kill assay (reference value: 5.65 to 9.57). In kind it is functional. The conditions noted are these: dose 16 µg/ml.
Data set [17] has as its system Staphylococcus aureus. Description: Bactericidal activity against Staphylococcus aureus ATCC 29213 at 16 ug/ml measured at 0 hrs by time kill assay (reference value: 5.65 to 9.57). The conditions noted are these: dose 16 µg/ml. In kind it is functional.

Values after ≈ are worked out from the molar mass of the structure shown. Active and inactive are the calls of the source. No cut-off for these calls is given here.

Usually inhibition stands for how much of the control response was suppressed. Usually MIC stands for the lowest concentration that inhibits growth of the organism. The low end stands for a more susceptible organism, the high end for a less susceptible organism. With `Oc1ccc(Cc2cocc2Cc2ccc(O)cc2)cc1`, in data set [1], testing at 64 µg/mL gave an inhibition of 33%. Further, the MIC against Staphylococcus aureus [2] is 32 µg/mL (≈ 114 µM); against Pseudomonas aeruginosa, greater than 128 µg/mL; in data set [10], 32 µg/mL (≈ 114 µM); in the data set with Candida albicans, 32 µg/mL (≈ 114 µM). The compound also yielded an inhibition in data set [3] of 25%. The Activity is recorded as 5.74 log10CFU/ml in the data set on Staphylococcus aureus [4]; 8.86 log10CFU/ml in the data set on Staphylococcus aureus [6]; 7.77 log10CFU/ml with Staphylococcus aureus [7]; 6.38 log10CFU/ml in the data set on Staphylococcus aureus [9]; 5.77 log10CFU/ml in the data set on Staphylococcus aureus [11]. For the same compound, the cytotoxicity at 24 h, 32 ug/ml in data set [5] amounted to 40%. Moreover, the cytotoxicity at 24 h, 16 ug/ml in [8] was 25%. Moreover, the inhibition result in data set [12] was “inactive”.
As to `COc1ccc(Cc2cocc2Cc2ccccc2OC)cc1`, the MIC against Staphylococcus aureus [2] and in the data set with Pseudomonas aeruginosa was greater than 128 µg/mL throughout.
For the compound `COc1ccc(Cc2cocc2Cc2ccc(O)cc2)cc1`, the Activity amounted to 1.24 log10CFU/ml in the data set with Staphylococcus aureus [13]; 2.2 log10CFU/ml in the data set with Staphylococcus aureus [14]; 1.35 log10CFU/ml in the data set on Staphylococcus aureus [15]; 1.6 log10CFU/ml in the data set with Staphylococcus aureus [16]; 5.75 log10CFU/ml in the data set with Staphylococcus aureus [17]. For the same compound, at 64 µg/mL the inhibition in data set [1] was 33%. The MIC in the data set with Staphylococcus aureus [2] is 16 µg/mL (≈ 54.4 µM); in the data set on Pseudomonas aeruginosa, greater than 128 µg/mL; in data set [10], 16 µg/mL (≈ 54.4 µM); in the data set on Candida albicans it was 16 µg/mL (≈ 54.4 µM). This compound also displayed an inhibition in [3] of 25%. In [8], the cytotoxicity at 24 h, 16 ug/ml worked out at 50%. Further, in data set [12], the inhibition result is “inactive”.
For the compound `NC[C@H]1O[C@H](O[C@H]2[C@H](O)[C@@H](O[C@H]3O[C@H](CO)[C@@H](O)[C@H](N)[C@H]3O)[C@H](N)C[C@@H]2N)[C@H](N)C[C@@H]1O` [TOBRAMYCIN], in the data set on Pseudomonas aeruginosa, 4 µg/mL (≈ 8.56 µM) was the least that counted as inhibitory (MIC).
As to `CC(=O)Oc1ccc(Cc2cocc2Cc2ccc(OC(C)=O)cc2)cc1`, the MIC with Staphylococcus aureus [2] and in the data set on Pseudomonas aeruginosa was greater than 128 µg/mL in each case.
On to `COc1ccc(Cc2cocc2Cc2ccccc2O)cc1`, for which the Activity stood at 1.56 log10CFU/ml in the data set on Staphylococcus aureus [13]; 2.47 log10CFU/ml in the data set on Staphylococcus aureus [14]; 1.61 log10CFU/ml in the data set on Staphylococcus aureus [15]; 1.94 log10CFU/ml with Staphylococcus aureus [16]; 5.7 log10CFU/ml in the data set on Staphylococcus aureus [17]. The MIC against Staphylococcus aureus [2] is 16 µg/mL (≈ 54.4 µM); with Pseudomonas aeruginosa it was greater than 128 µg/mL.
`COc1ccc(CC23OC2OC2OC23Cc2ccc(OC)cc2)cc1` (configuration not stated): the MIC against Staphylococcus aureus [2] and in the data set on Pseudomonas aeruginosa was greater than 128 µg/mL in each case.
In the case of `COc1ccc(CC2=C(Cc3ccc(OC)cc3)C(O)OC2=O)cc1` (configuration not stated), the minimal inhibitory concentration (MIC) with Staphylococcus aureus [2] and against Pseudomonas aeruginosa was greater than 128 µg/mL each time.
As to `COc1ccc(Cc2cocc2Cc2ccc(OC)cc2)cc1`, the MIC against Staphylococcus aureus [2] and against Pseudomonas aeruginosa was greater than 128 µg/mL in each case.
Regarding `O=C1OC(O)C(Cc2ccc(O)cc2)=C1Cc1ccc(O)cc1` (configuration not stated), the MIC against Staphylococcus aureus [2] and against Pseudomonas aeruginosa was greater than 128 µg/mL in each case.
On to `C[C@@H]1[C@H](O)[C@@H](C)/C=C/C=C/C=C/C=C/C=C/C=C/C=C/[C@H](O[C@@H]2O[C@H](C)[C@@H](O)[C@H](N)[C@@H]2O)C[C@@H]2O[C@](O)(C[C@@H](O)C[C@@H](O)[C@H](O)CC[C@@H](O)C[C@@H](O)CC(=O)O[C@H]1C)C[C@H](O)[C@H]2C(=O)O` [AMPHOTERICIN B], for which the MIC with Candida albicans was 0.25 µg/mL (≈ 0.271 µM).
For `COc1ccc(CC2C(=O)OC3OC32Cc2ccc(OC)cc2)cc1` (configuration not stated), the MIC against Staphylococcus aureus [2] and in the data set with Pseudomonas aeruginosa was greater than 128 µg/mL throughout.
In the case of `Oc1ccc(Cc2cocc2Cc2ccccc2O)cc1`, the figures for the MIC in the data set with Staphylococcus aureus [2] and in the data set on Pseudomonas aeruginosa were 64 µg/mL (≈ 228 µM) and greater than 128 µg/mL, respectively.
